Data: patent US11780830B2, “Triazolone derivatives or salts thereof and pharmaceutical compositions comprising the same” (YUHAN CORPORATION, priority 2018, dated 2023)
Counter-ions that a name gives are not always drawn.

Tests used:
Assay type in all cases: biochemical
[1] = molecular target: T1, recombinant human MAO-A (monoamine oxidase-A) (Homo sapiens, UniProt P21397); test: Activity on recombinant human MAO-A, method similar to the VAP-1 assay; conditions: substrate 0.5 mM tyramine; read-out: Inhibitory Activity (IC50, nM) MAO-A
T1 construct: purchased Sigma-Aldrich
T1 sequence (P21397 1-527): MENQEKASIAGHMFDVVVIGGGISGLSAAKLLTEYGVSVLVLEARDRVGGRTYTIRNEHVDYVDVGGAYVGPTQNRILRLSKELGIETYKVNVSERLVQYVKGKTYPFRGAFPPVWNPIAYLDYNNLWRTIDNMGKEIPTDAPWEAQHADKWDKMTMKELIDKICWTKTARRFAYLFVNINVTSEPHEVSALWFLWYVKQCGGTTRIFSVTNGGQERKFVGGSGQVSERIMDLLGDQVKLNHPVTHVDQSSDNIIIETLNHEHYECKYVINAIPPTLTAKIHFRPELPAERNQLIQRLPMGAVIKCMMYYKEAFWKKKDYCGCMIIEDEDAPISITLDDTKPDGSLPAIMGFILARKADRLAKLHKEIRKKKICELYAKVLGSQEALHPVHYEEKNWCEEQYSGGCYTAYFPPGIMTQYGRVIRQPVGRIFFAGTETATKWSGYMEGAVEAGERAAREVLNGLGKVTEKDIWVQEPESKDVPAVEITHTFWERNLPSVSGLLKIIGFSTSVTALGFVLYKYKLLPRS
In short: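 Amplex Red/HRP coupled read-out of H2O2 with 0.5 mM tyramine for MAO-A or 1 mM benzylamine for MAO-B, following a 30-min compound–enzyme preincubation at 37° C. IC50 from percent inhibition of signal rate relative to uninhibited control.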

recombinant human VAP-1 = molecular target: T2, recombinant human VAP-1 (Homo sapiens, UniProt Q16853); test: Activity on recombinant human VAP-1, HRP-coupled Amplex Red hydrogen peroxide assay; conditions: substrate 1 mM benzylamine; compound incubated with enzyme at 37° C. for 30 minutes; pH 7.4; read-out: Inhibitory Activity (IC50, nM) human VAP-1
T2 construct: purchased R&D systems
T2 sequence (Q16853 1-763): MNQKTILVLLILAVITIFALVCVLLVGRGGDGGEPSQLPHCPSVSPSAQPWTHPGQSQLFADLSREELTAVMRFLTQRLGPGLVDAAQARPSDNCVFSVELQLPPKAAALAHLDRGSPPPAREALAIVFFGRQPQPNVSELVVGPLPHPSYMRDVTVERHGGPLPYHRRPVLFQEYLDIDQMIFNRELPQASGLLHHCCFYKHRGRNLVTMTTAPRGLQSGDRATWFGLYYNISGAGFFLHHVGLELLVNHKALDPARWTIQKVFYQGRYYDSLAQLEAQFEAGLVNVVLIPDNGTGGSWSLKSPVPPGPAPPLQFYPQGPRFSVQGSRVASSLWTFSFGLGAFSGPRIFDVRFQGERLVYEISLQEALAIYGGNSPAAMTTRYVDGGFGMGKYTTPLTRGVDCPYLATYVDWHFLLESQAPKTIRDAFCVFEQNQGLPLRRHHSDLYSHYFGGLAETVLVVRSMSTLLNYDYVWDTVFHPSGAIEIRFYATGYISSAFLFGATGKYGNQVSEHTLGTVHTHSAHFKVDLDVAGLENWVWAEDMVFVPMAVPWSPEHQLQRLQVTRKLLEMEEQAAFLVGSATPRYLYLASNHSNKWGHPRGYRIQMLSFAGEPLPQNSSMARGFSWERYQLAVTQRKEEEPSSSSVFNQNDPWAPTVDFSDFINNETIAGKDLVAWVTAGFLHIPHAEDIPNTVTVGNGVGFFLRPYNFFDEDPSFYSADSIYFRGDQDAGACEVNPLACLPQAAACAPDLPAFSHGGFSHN
In short: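 Dose-response IC50 determined from reduction in resorufin signal rate (544/590 nm, 1-2 h), with 30 min compound preincubation at 37 °C and 1 mM benzylamine as substrate.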

[2] = molecular target: T3, recombinant human MAO-B (monoamine oxidase-B) (Homo sapiens, UniProt P27338); test: Activity on recombinant human MAO-B, method similar to the VAP-1 assay; conditions: substrate 1 mM benzylamine; read-out: Inhibitory Activity (IC50, nM) MAO-B
T3 construct: purchased Sigma-Aldrich
T3 sequence (P27338 1-520): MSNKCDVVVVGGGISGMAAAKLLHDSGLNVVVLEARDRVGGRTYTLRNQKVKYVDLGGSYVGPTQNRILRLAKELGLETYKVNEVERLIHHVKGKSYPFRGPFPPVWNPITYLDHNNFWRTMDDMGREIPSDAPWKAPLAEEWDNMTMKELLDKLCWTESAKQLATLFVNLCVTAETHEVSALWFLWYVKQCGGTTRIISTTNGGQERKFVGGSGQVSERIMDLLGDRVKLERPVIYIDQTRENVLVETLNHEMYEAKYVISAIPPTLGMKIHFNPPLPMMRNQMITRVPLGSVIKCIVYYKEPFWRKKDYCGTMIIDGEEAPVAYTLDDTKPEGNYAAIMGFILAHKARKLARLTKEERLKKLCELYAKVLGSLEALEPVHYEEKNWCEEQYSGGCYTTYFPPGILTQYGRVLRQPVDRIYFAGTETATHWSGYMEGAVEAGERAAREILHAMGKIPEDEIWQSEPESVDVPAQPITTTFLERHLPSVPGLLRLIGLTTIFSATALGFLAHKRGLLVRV
Description: The compounds according to the present technology were evaluated in terms of activity on recombinant human VAP-1 (R&D systems) by measuring the level of hydrogen peroxide in horseradish peroxidase (HRP)-coupled reaction using Amplex Red Hydrogen Peroxide Assay Kit (Molecular Probes, Invitrogen, USA). The experiment was carried out at room temperature using benzylamine as a substrate. In the HRP-coupled reaction, hydrogen peroxide oxidation of 10-acetyl-3,7-dihydroxyphenoxazine (Amplex Red reagent) produces resorufin, which is a highly fluorescent compound. Briefly, the test compound was dissolved in dimethyl sulfoxide (DMSO) at a concentration of 20 mM. The dose-response assessment was made by 1:3 serial dilution in DMSO, thereby creating an 8 point curve. The concentration of the upper part was controlled according to the efficacy of the compounds, followed by dilution with a reaction buffer solution to obtain a final DMSO concentration less than 1%. To each well of a 96 black well plate, human VAP-1 purified in 50 mM sodium phosphate buffer solution (pH7.4) was added. The test compounds dissolved in DMSO were incubated with the human VAP-1 enzymes at 37° C. for 30 minutes. After 30-minute incubation, each well is added with a reaction mixture containing 200 uM Amplex Red reagent prepared from 50 mM sodium phosphate buffer solution (pH 7.4), 1 mM benzylamine, and 1 U/mL HRP. Fluorescence intensity was measured at several time points during 1-2 hours using a microplate reader (Flexstation3, Molecular Devices) under the wavelength condition exciting at 544 nm and reading the emission at 590 nm. The inhibitory effect of the compounds was measured as a decrease (%) in the signal rate as compared to the control group without any inhibitor (only diluted DMSO). Data was fixed to a logistic model with four variables and IC50 value was calculated using GraphPad Prism program.
In addition, the compounds according to the present technology were evaluated in terms of activity on a recombinant human MAO-A (monoamine oxidase-A, Sigma-Aldrich) and a recombinant human MAO-B (monoamine oxidase-B, Sigma-Aldrich) by using as substrates, 0.5 mM tyramine and 1 mM benzylamine, respectively, with a method similar to the activity evaluation method for recombinant human VAP-1. The compounds according to the present technology were also evaluated in terms of activity on a recombinant human DAO (diamine oxidase, R&D systems) by using as a substrate 1 mM putrescine with a method similar to the activity evaluation method for recombinant human VAP-1.

[3] = molecular target: T4, recombinant human DAO (diamine oxidase) (Homo sapiens, UniProt P19801); test: Activity on recombinant human DAO, method similar to the VAP-1 assay; conditions: substrate 1 mM putrescine; read-out: Inhibitory Activity (IC50, nM) DAO
T4 construct: purchased R&D systems
T4 sequence (P19801 20-751): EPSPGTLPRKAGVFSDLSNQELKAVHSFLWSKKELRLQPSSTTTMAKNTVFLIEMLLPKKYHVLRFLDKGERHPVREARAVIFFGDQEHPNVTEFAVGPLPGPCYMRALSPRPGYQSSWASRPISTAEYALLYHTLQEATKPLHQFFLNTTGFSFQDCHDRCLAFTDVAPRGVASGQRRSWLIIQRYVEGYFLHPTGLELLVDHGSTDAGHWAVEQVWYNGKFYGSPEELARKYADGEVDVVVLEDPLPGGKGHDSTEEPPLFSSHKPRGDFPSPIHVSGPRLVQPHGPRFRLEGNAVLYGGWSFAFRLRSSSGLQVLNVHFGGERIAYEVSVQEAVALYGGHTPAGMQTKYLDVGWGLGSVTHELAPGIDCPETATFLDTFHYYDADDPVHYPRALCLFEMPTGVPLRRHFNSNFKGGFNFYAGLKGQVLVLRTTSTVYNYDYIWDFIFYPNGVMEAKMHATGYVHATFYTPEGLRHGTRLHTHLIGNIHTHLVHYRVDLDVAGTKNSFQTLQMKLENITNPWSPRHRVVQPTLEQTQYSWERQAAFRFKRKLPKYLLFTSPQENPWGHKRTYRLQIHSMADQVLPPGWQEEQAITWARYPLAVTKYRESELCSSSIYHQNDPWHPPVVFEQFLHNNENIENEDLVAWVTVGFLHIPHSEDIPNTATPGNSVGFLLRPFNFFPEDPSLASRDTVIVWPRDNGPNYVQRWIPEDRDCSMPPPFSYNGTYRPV
In short: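 Inhibition of recombinant human diamine oxidase (DAO, R&D systems) was assessed by the same approach as the VAP-1 assay, using 1 mM putrescine as substrate. Hydrogen peroxide formed was detected through an HRP-coupled Amplex Red reaction yielding fluorescent resorufin, read at 544 nm excitation and 590 nm emission. IC50 values came from four-parameter logistic fitting in GraphPad Prism.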

| Compound | IC50 [1] [nM] | IC50 (recombinant human VAP-1) [nM] | IC50 [2] [nM] | IC50 [3] [nM] |
| --- | --- | --- | --- | --- |
| NC/C(=C\F)Cn1ncn(Cc2ccc(-c3ccc(N4CCCC4)cc3)s2)c1=O [Example 20, 2-[(2E)-2-(aminomethyl)-3-fluoroprop-2-en-1-yl]-4-(5-[4-(pyrrolidin-1-yl)phenyl]thiophen-2-ylmethyl)-2,4-dihydro-3H-1,2,4-triazol-3-one hydrochloride] | 6600 | 5 | 730 | 2700 |
| NC/C(=C\F)Cn1ncn(Cc2ccc(-c3ccc(N4CCCC4=O)cc3)s2)c1=O [Example 21, 2-[(2E)-2-(aminomethyl)-3-fluoroprop-2-en-1-yl]-4-(5-[4-(2-oxopyrrolidin-1-yl)phenyl]thiophen-2-ylmethyl)-2,4-dihydro-3H-1,2,4-triazol-3-one hydrochloride] | > 100000 | 2 | 3000 | 1300 |
| NC/C(=C\F)Cn1ncn(Cc2ccc(-c3ccc(N4CCNCC4)cc3)s2)c1=O [Example 22, 2-[(2E)-2-(aminomethyl)-3-fluoroprop-2-en-1-yl]-4-(5-[4-(piperazin-1-yl)phenyl]thiophen-2-ylmethyl)-2,4-dihydro-3H-1,2,4-triazol-3-one hydrochloride] | > 100000 | 6.4 | 2600 | 2400 |
| NC/C(=C\F)Cn1ncn(Cc2ccc(-c3ccc(C4CCOCC4)cc3)s2)c1=O [Example 25, 2-[(2E)-2-(aminomethyl)-3-fluoroprop-2-en-1-yl]-4-(5-[4-(tetrahydro-2H-pyran-4-yl)phenyl]thiophen-2-ylmethyl)-2,4-dihydro-3H-1,2,4-triazol-3-one hydrochloride] | > 100000 | 3.1 | 1300 | 690 |
| NC/C(=C\F)Cn1ncn(Cc2ccc(-c3ccc(C(=O)N4CCOCC4)cc3)s2)c1=O [Example 27, 2-[(2E)-2-(aminomethyl)-3-fluoroprop-2-en-1-yl]-4-(5-[4-(morpholin-4-ylcarbonyl)phenyl]thiophen-2-ylmethyl)-2,4-dihydro-3H-1,2,4-triazol-3-one hydrochloride] | > 100000 | 1.1 | 18000 | 470 |

Continued, values first:

| IC50 [1] [nM] | IC50 (recombinant human VAP-1) [nM] | IC50 [2] [nM] | IC50 [3] [nM] | Compound |
| --- | --- | --- | --- | --- |
| > 100000 | 4.6 | 1100 | 1800 | COCCOc1ccc(-c2ccc(Cn3cnn(C/C(=C/F)CN)c3=O)s2)cc1 [Example 19, 2-[(2E)-2-(aminomethyl)-3-fluoroprop-2-en-1-yl]-4-(5-[4-(2-methoxyethoxy)phenyl]thiophen-2-ylmethyl)-2,4-dihydro-3H-1,2,4-triazol-3-one hydrochloride] |
| > 100000 | 2.5 | 300 | 3200 | NC/C(=C\F)Cn1ncn(Cc2ccc(-c3cccc(N4CCNCC4)c3)s2)c1=O [Example 23, 2-[(2E)-2-(aminomethyl)-3-fluoroprop-2-en-1-yl]-4-(5-[3-(piperazin-1-yl)phenyl]thiophen-2-ylmethyl)-2,4-dihydro-3H-1,2,4-triazol-3-one hydrochloride] |
| 21000 | 1.4 | > 10000 | 670 | CC(=O)N1CCN(c2ccc(-c3ccc(Cn4cnn(C/C(=C/F)CN)c4=O)s3)cc2)CC1 [Example 24, 4-(5-[4-(4-acetylpiperazin-1-yl)phenyl]thiophen-2-ylmethyl)-2-[(2E)-2-(aminomethyl)-3-fluoroprop-2-en-1-yl]-2,4-dihydro-3H-1,2,4-triazol-3-one hydrochloride] |
